Measurements as given in patent US7098313B2, “DNA sequences coding for a polyol carrier and their use, in particular for the preparation of transgenic plants” (Centre National de la Recherche Scientifique, priority 2000, dated 2006).

Legend:
[1] = tested on: AgMaT1 expression; details: saline stress for 4 weeks, daily watering with 300 mM of NaCl; RT-PCR
Protocol: The total RNA of celery phloem was isolated according to the method of Kay et al. (1987). The first strand of cDNA was reverse transcribed from the total RNA with the oligo dT primer by using the reverse transcriptase SuperScript™ II (Stratagene). […] The PCR conditions were as follows: 2 minutes at 95° C. then 30 cycles comprising denaturation for 30 seconds at 95° C., fixation for one minute at 47° C. and extension for 45 seconds at 72° C. The PCR products were analyzed by agarose gel electrophoresis and the intensity of the signal obtained was quantified using Photoshop 5.0 software (Adobe systems Inc.). The extension factor elF4A(10) (Mandel et al., 1995) was used as control gene, the expression of which is invariable.
The expression of AgMaT1 was monitored in plants having been subjected to saline stress for 4 weeks (daily watering with 300 mM of NaCl, Noiraud et al., 2000). The phloem of these plants as well as of the corresponding control plants (watered with water not containing NaCl) was removed in order to extract the RNA which was used to carry out RT-PCR reactions.

[2] = tested on: AgMaT1; assay: Transport of radiolabelled mannitol in yeast cells expressing AgMaT1, with competitors; type: cell-based, Apium graveolens L.; details: MaDH4 S. cerevisiae expressing AgMaT1; 500 μM [3H]-mannitol, pH 4.5; competitor added 30 seconds before
Protocol: The cells were cultured until the start of the logarithmic phase (corresponding to an absorbance of […]), washed in distilled water and resuspended at 1% (weight/volume) in SC medium buffered to pH 4.5 with 25 mM MES. A 100 μl aliquot fraction of the cell suspension was incubated for 60, 120, 180 and 300 seconds in 100 μl of a solution containing of 500 μM [^3H]-mannitol. The reaction was stopped by adding 8 ml of water at 4° C. and by filtration through glass fibre filters (Sartorius). The radioactivity incorporated in the yeast cells was determined by counting using liquid scintillation (Packard). For the experiments with inhibitors or competitors, the product was added 30 seconds before the radioactive mannitol.
For a subsequent characterization of the function of the AgMaT1 protein, it was necessary to express the carrier in a functional manner in a heterologous system such as yeast cells. The cDNA of AgMaT1 was sub-cloned in the PstI/XhoI sites of the YEP 112A1XE shuttle vector which has a promoter/terminator box of the gene of alcohol dehydrogenase ADH1 of S. cerevisiae (Riesmeier et al., 1992). The competent MaDH4 cells were transformed with this construction and YEP 112A1XE was used as control.
All of the constructions were firstly tested for their ability to grow on mannitol as the only carbon source. […] The cells expressing AgMaT1 could grow very well on this polyol. In order to directly test the ability of the transformed cells to transport mannitol, the yeast cells were incubated in a medium containing [^3H]-mannitol for a few seconds to several minutes, the cells were washed and the radioactivity absorbed was measured by […] scintillation counting. […] However, the MaDH4 yeast strains, expressing AgMaT1, transport the [^3H]-mannitol at high speeds when they grow on a medium containing mannitol. The same result is obtained with the cells of transformed yeast growing on glycerol (data not indicated).

Row | Compound | expression of AgMaT1 in the phloem (control plants taken as base 100) [1] [%] | inhibition of the absorption of mannitol [2]
1 | [Cl-].[Na+] [NaCl] | 500 | –
2 | OC[C@@H](O)[C@H](O)[C@H](O)[C@@H](O)CO [dulcitol] | – | inhibiting by half
3 | O[C@H]1[C@H](O)[C@@H](O)[C@H](O)[C@@H](O)[C@H]1O [myo-inositol] | – | inhibiting by half
4 | OC[C@@H](O)[C@@H](O)[C@H](O)[C@@H](O)CO [sorbitol] | – | inhibiting by half
5 | OC[C@@H](O)[C@H](O)[C@@H](O)CO [xylitol] | – | inhibiting by half
